Measured values reported in patent US5663149A, “Human cancer inhibitory pentapeptide heterocyclic and halophenyl amides” (priority 1994, dated 1997).

Legend:
[1] = test system: P388 Lymphocytic Leukemia; experiment: Murine in vivo system, P388 Lymphocytic Leukemia; details: P388, dose 13.0 μg/kg
Excerpt: (§1) Experimental Anti-cancer Activity of Dolastatin 10 in Murine in vivo Systems, T/C (μg/kg)

[2] = test system: M5076 Ovary Sarcoma; experiment: Murine in vivo system, M5076 Ovary Sarcoma; details: M5076, dose 26 μg/kg
Excerpt: as §1

[3] = test system: LOX Human Melanoma Xenograft; experiment: LOX Human Melanoma Xenograft in nude mouse; format: in vivo; details: dose 52 μg/kg
Excerpt: as §1

[4] = test system: Human Mammary Xenograft; experiment: Human Mammary Xenograft in nude mouse; format: in vivo; details: dose 26 μg/kg
Excerpt: as §1

[5] = test system: OVCAR-3 (Ovarian); experiment: NCI human tumor cell line growth inhibition, OVCAR-3; format: cell-based; details: Ovarian OVCAR-3, 48 hours
Procedure: (§2) The only difference is historical usage.
(§3) Percent Growths are calculated for each dose.
(§4) This is the "baseline count", or "Tzero reading".

[6] = test system: SF-295 (CNS); experiment: NCI human tumor cell line growth inhibition, SF-295; format: cell-based; details: CNS SF-295, 48 hours
Procedure: as §2, §3, §4

[7] = test system: NCI-H460 (Lung-NSC); experiment: NCI human tumor cell line growth inhibition, NCI-H460; format: cell-based; details: Lung-NSC NCI-H460, 48 hours
Procedure: as §2, §3, §4

[8] = test system: KM20L2 (Colon); experiment: NCI human tumor cell line growth inhibition, KM20L2; format: cell-based; details: Colon KM20L2, 48 hours
Procedure: as §2, §3, §4

[9] = test system: SK-MEL-5 (Melanoma); experiment: NCI human tumor cell line growth inhibition, SK-MEL-5; format: cell-based; details: for GI-50 / LC-50 / TGI: Melanoma SK-MEL-5, 48 hours
Procedure: as §2, §3, §4

[10] = test system: PS-388 (Mouse Leukemia); experiment: P-388 mouse leukemia cell growth inhibition; format: cell-based; details: Mouse Leukemia PS-388
Procedure: as §2, §3, §4

[11] = test system: A498 (Renal); details: Renal A498, 48 hours;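 further: NCI protocol, compound given at five doses from 0.01 to 100 µg/ml, percent growth versus untreated controls relative to cell count at time zero, regression on log dose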
Excerpt: The following measures are used to express drug activity by giving the drug dose which reduces cell growth to a specified percentage of growth:
There is no mathematical difference between ED50 and GI50, which are both calculated using the same formula. The only difference is historical usage.
TGI, (Total Growth Inhibition), is the drug dose needed to yield zero percent growth, i.e., just as many cells at the end of the experiment as were present in the beginning. Whether just as many cells were killed as were produced (steady state), or no growth occurred (total inhibition), cannot be distinguished.
Each drug is tested at five (5) doses: 100-10-1-0.1-0.01 μg/ml. Percent Growths are calculated for each dose. […] The log of the dose is used during the regression computation.
At the start of an experiment, cells from the in vitro cell cultures are inoculated into the appropriate tubes or microtiter plates. One set of control tubes/plates is immediately counted to determine the number of cells at the start of the experiment. This is the "baseline count", or "Tzero reading". At the end of the experiment (48 hours later) a second set of control tubes/plates is analyzed to determine the "Control Growth" value. The growth (or death) of cells relative to the initial quantity of cells is used to define the "Percent of Growth".

CC[C@H](C)[C@@H]([C@@H](CC(=O)N1CCC[C@H]1[C@H](OC)[C@@H](C)C(=O)N[C@@H](Cc1ccccc1)c1nccs1)OC)N(C)C(=O)[C@@H](NC(=O)[C@H](C(C)C)N(C)C)C(C)C [Dolastatin 10]
T/C outcome: toxic [1]: toxic | T/C outcome: toxic [2]: toxic | T/C outcome: toxic [3]: toxic | T/C outcome: toxic [4]: Toxic

L-Dolavalyl-L-Valyl-N-Methyl-(S,S,R)-Dolaisoleuinyl-(S,R,R)-Dolaproinyl-L- Phenylalanine N-2,5-Dichlorophenyl Amide [9h]
GI-50 [5]: 0.0000031 µg/mL | LC-50 [5]: > 0.0001 µg/mL | TGI [5]: 0.017 ng/mL | GI-50 [6]: 0.0000036 µg/mL | LC-50 [6]: > 0.0001 µg/mL | TGI [6]: > 0.1 ng/mL | GI-50 [7]: 0.0000029 µg/mL | LC-50 [7]: > 0.0001 µg/mL | TGI [7]: 0.012 ng/mL | GI-50 [8]: 0.0000042 µg/mL | LC-50 [8]: > 0.0001 µg/mL | TGI [8]: 0.037 ng/mL | GI-50 [9]: 0.0000031 µg/mL | LC-50 [9]: > 0.0001 µg/mL | TGI [9]: > 0.1 ng/mL | ED-50 [10]: 0.0000482 µg/mL | GI-50 [11]: 0.000016 µg/mL | LC-50 [11]: > 0.0001 µg/mL | TGI [11]: > 0.1 ng/mL

L-Dolavalyl-L-Valyl-N-Methyl-(S,S,R)-Dolaisoleuinyl-(S,R,R)-Dolaproinyl-L- Phenylalanine N-2-(6-Chloro)benzothiazole Amide [9k]
GI-50 [5]: 0.0000043 µg/mL | TGI [5]: 0.027 ng/mL | GI-50 [6]: 0.000022 µg/mL | TGI [6]: > 0.1 ng/mL | GI-50 [7]: 0.0000044 µg/mL | TGI [7]: 0.063 ng/mL | GI-50 [8]: 0.000022 µg/mL | TGI [8]: 0.072 ng/mL | GI-50 [9]: 0.000003 µg/mL | TGI [9]: > 0.1 ng/mL | ED-50 [10]: 0.000383 µg/mL | GI-50 [11]: 0.000031 µg/mL | TGI [11]: > 0.1 ng/mL

L-Dolavalyl-L-Valyl-N-Methyl-(S,S,R)-Dolaisoleuinyl-(S,R,R)-Dolaproinyl-L- Phenylalanine N-2-(6-Fluoro)benzothiazole Amide [9j]
GI-50 [5]: 0.0000031 µg/mL | TGI [5]: 0.012 ng/mL | GI-50 [6]: 0.0000044 µg/mL | TGI [6]: > 0.1 ng/mL | GI-50 [7]: 0.0000041 µg/mL | TGI [7]: 0.036 ng/mL | GI-50 [8]: 0.0000033 µg/mL | TGI [8]: 0.013 ng/mL | GI-50 [9]: 0.0000013 µg/mL | TGI [9]: > 0.1 ng/mL | ED-50 [10]: 0.000227 µg/mL | GI-50 [11]: 0.000016 µg/mL | TGI [11]: > 0.1 ng/mL

L-Dolavalyl-L-Valyl-N-Methyl-(S,S,R)-Dolaisoleuinyl-(S,R,R)-Dolaproinyl-L- Phenylalanine N-3-Chlorophenyl Amide [9d]
GI-50 [5]: 0.000018 µg/mL | LC-50 [5]: > 0.01 µg/mL | TGI [5]: 0.16 ng/mL | GI-50 [6]: 0.000041 µg/mL | LC-50 [6]: > 0.01 µg/mL | TGI [6]: > 1 ng/mL | GI-50 [7]: 0.0000094 µg/mL | LC-50 [7]: > 0.01 µg/mL | TGI [7]: 0.11 ng/mL | GI-50 [8]: 0.000007 µg/mL | LC-50 [8]: > 0.01 µg/mL | TGI [8]: 0.19 ng/mL | GI-50 [9]: < 1e-12 µg/mL | LC-50 [9]: > 0.01 µg/mL | TGI [9]: 5.1 ng/mL | human tumor inhibiting activity ([9]; Melanoma SK-MEL-5 cell line, statement in words): unprecedented and extraordinary human tumor inhibiting activity | ED-50 [10]: 0.00258 µg/mL | GI-50 [11]: 0.00012 µg/mL | LC-50 [11]: > 0.01 µg/mL | TGI [11]: > 1 ng/mL

L-Dolavalyl-L-Valyl-N-Methyl-(S,S,R)-Dolaisoleuinyl-(S,R,R)-Dolaproinyl-L- Phenylalanine N-4-Chlorophenyl Amide [9f]
GI-50 [5]: 0.0000014 µg/mL | LC-50 [5]: > 0.0001 µg/mL | TGI [5]: 0.0056 ng/mL | GI-50 [6]: 0.0000025 µg/mL | LC-50 [6]: > 0.0001 µg/mL | TGI [6]: > 0.1 ng/mL | GI-50 [7]: 0.0000018 µg/mL | LC-50 [7]: > 0.0001 µg/mL | TGI [7]: 0.01 ng/mL | GI-50 [8]: 0.0000029 µg/mL | LC-50 [8]: > 0.0001 µg/mL | TGI [8]: 0.0084 ng/mL | GI-50 [9]: 0.0000002 µg/mL | LC-50 [9]: > 0.0001 µg/mL | TGI [9]: 0.047 ng/mL | ED-50 [10]: 0.0000452 µg/mL | GI-50 [11]: 0.000007 µg/mL | LC-50 [11]: > 0.0001 µg/mL | TGI [11]: > 0.1 ng/mL

L-Dolavalyl-L-Valyl-N-Methyl-(S,S,R)-Dolaisoleuinyl-(S,R,R)-Dolaproinyl-L- Proline N-2-Benzothiazole Amide [9n]
GI-50 [5]: 0.000027 µg/mL | TGI [5]: 0.079 ng/mL | GI-50 [6]: 0.000035 µg/mL | TGI [6]: > 0.1 ng/mL | GI-50 [7]: 0.000031 µg/mL | TGI [7]: > 0.1 ng/mL | GI-50 [8]: 0.000029 µg/mL | TGI [8]: > 0.1 ng/mL | GI-50 [9]: 0.0000098 µg/mL | TGI [9]: > 0.1 ng/mL | ED-50 [10]: 0.00083 µg/mL | GI-50 [11]: 0.000081 µg/mL | TGI [11]: > 0.1 ng/mL

L-Dolavalyl-L-Valyl-N-Methyl-(S,S,R)-Dolaisoleuinyl-(S,R,R)-Dolaproinyl-L- Proline N-3-Quinoline Amide [9q]
GI-50 [5]: 0.000086 µg/mL | LC-50 [5]: > 0.0001 µg/mL | TGI [5]: > 0.1 ng/mL | GI-50 [6]: 0.00036 µg/mL | LC-50 [6]: > 0.0001 µg/mL | TGI [6]: > 0.1 ng/mL | GI-50 [7]: 0.0003 µg/mL | LC-50 [7]: > 0.0001 µg/mL | TGI [7]: > 0.1 ng/mL | GI-50 [8]: 0.00033 µg/mL | LC-50 [8]: > 0.0001 µg/mL | TGI [8]: > 0.1 ng/mL | GI-50 [9]: 0.00011 µg/mL | LC-50 [9]: > 0.0001 µg/mL | TGI [9]: > 0.1 ng/mL | ED-50 [10]: 0.000415 µg/mL | GI-50 [11]: 0.00041 µg/mL | LC-50 [11]: > 0.0001 µg/mL | TGI [11]: > 0.1 ng/mL

L-Dolavalyl-L-Valyl-N-Methyl-(S,S,R)-Dolaisoleuinyl-(S,R,R)-Dolaproinyl-L- Valine N-3-Quinoline Amide [9r]
GI-50 [5]: 0.000019 µg/mL | LC-50 [5]: > 0.0001 µg/mL | TGI [5]: 0.069 ng/mL | GI-50 [6]: 0.000027 µg/mL | LC-50 [6]: > 0.0001 µg/mL | TGI [6]: > 0.1 ng/mL | GI-50 [7]: 0.000026 µg/mL | LC-50 [7]: > 0.0001 µg/mL | TGI [7]: > 0.1 ng/mL | GI-50 [8]: 0.000031 µg/mL | LC-50 [8]: > 0.0001 µg/mL | TGI [8]: > 0.1 ng/mL | GI-50 [9]: 0.0000057 µg/mL | LC-50 [9]: > 0.0001 µg/mL | TGI [9]: > 0.1 ng/mL | ED-50 [10]: 0.0041 µg/mL | GI-50 [11]: 0.000051 µg/mL | LC-50 [11]: > 0.0001 µg/mL | TGI [11]: > 0.1 ng/mL
